# Reference: patent publication US20240207458A1, “TARGETED ALPHA PARTICLE THERAPY FOR SOMATOSTATIN RECEPTOR 2 POSITIVE NEUROENDOCRINE TUMORS AND METASTASES” (H. LEE MOFFITT CANCER CENTER AND RESEARCH INSTITUTE, INC., priority 2021, published 2024)
# Bridge positions count the residues as written; N and C are the ends. Square brackets hold non-standard residues; d marks the D form. Peptide text beside a SMILES is read from it. * marks the point of attachment. DOTA = O=C(O)CN1CCN(CC(=O)O)CCN(CC(=O)*)CCN(CC(=O)O)CC1
# How the values were obtained:
# [1] = 225Ac chelate, non-tumor bearing BALB/c mice
# Experimental: BD of ^225Ac-DOTA-linker-TATE derivatives in non-tumor bearing BALB/c mice: The biodistribution studies for all 5 compounds were conducted (FIG. 4 and Table 1).
# [2] = Log D7.4, miniaturized shake flask assay (n-octanol/PBS pH 7.4); format: physicochemical; details: for Log D7.4 of La^3+ chelate: La3+ chelate, n-octanol/PBS; for LogD7.4: metal chelate as named (Eu or La)
# Experimental: Log D7.4 measurements of the La^3+-labeled derivatives: The octanol-water partition coefficients at pH7.4 (LogD7.4) of DOTA-linker-TATE derivatives were determined using the miniaturized shake flask assay (Table 1). Briefly, 1:1 n-octanol (HPLC grade) was added to the solution of the test compound in PBS buffer (NaH2PO4/Na2HPO4 buffer, pH 7.4). The mixture was well mixed and then two layers were separated by centrifuge. The concentrations of compound in each layer were determined by HPLC.
# [3] = target: T1, SSTR2 receptor (Homo sapiens, UniProt P30874); assay: whole-cell competition binding assay with Eu-DOTATATE as competing ligand (Hek293/SSTR2 cells); details: FIGS. 5 and 6
# T1 construct: expressed in transfected cells; host or cells: Hek293/SSTR2 cells
# T1 sequence (P30874 whole entry): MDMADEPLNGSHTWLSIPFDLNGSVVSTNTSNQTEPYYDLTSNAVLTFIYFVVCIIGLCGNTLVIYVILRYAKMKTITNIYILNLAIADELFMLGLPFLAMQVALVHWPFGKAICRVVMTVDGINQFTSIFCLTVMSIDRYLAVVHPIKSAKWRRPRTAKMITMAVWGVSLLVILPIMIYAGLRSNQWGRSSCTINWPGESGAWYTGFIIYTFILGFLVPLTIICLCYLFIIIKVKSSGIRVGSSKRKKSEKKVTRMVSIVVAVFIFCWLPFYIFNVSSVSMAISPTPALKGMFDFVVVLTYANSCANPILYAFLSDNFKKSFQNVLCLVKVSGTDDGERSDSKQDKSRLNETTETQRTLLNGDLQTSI
# Experimental: Competition curves were analyzed with GraphPad Prism software using the sigmoidal dose-response (variable slope) classical equation for nonlinear regression analysis.
# [4] = parameters: species or system BALB/c mice; details: mouse, in vivo
# Experimental: (§1) Non-tumor bearing BALB/c mice were tested for toxicity and BD. […] RD was calculated using the BD data.
# (§2) RD calculations determined pharmacokinetics parameters and absorbed α-emission dosages from ^225Ac and its daughters.
# [5] = mouse, in vivo
# Experimental: as §1, §2
# [6] = in vitro; format: in vitro ADME; details: human, plasma
# Experimental: The compound was >95% intact after 5 days incubation.
molecule,measurement,setting,value
"C[C@@H](O)[C@H](NC(=O)[C@@H]1CSSC[C@H](NC(=O)[C@@H](Cc2ccccc2)NC(=O)CN2CCN(CC(=O)O)CCN(CC(=O)O)CCN(CC(=O)O)CC2)C(=O)N[C@@H](Cc2ccc(O)cc2)C(=O)N[C@H](Cc2c[nH]c3ccccc23)C(=O)N[C@@H](CCCCN)C(=O)N[C@@H]([C@@H](C)O)C(=O)N1)C(=O)O [Compound 1, DOTA-TATE, reference compound]",Kidney/Liver uptake ratio (24 h),[1],3.6
"C[C@@H](O)[C@H](NC(=O)[C@@H]1CSSC[C@H](NC(=O)[C@@H](Cc2ccccc2)NC(=O)CCCCCNC(=O)CN2CCN(CC(=O)O)CCN(CC(=O)O)CCN(CC(=O)O)CC2)C(=O)N[C@@H](Cc2ccc(O)cc2)C(=O)N[C@H](Cc2c[nH]c3ccccc23)C(=O)N[C@@H](CCCCN)C(=O)N[C@@H]([C@@H](C)O)C(=O)N1)C(=O)O [Compound 2, DOTA-Ahx-TATE]",Kidney/Liver uptake ratio (24 h),[1],5.3
"C[C@@H](O)[C@H](NC(=O)[C@@H]1CSSC[C@H](NC(=O)[C@@H](Cc2ccccc2)NC(=O)[C@@H](CCC(=O)O)NC(=O)[C@@H](CCC(=O)O)NC(=O)CN2CCN(CC(=O)O)CCN(CC(=O)O)CCN(CC(=O)O)CC2)C(=O)N[C@@H](Cc2ccc(O)cc2)C(=O)N[C@H](Cc2c[nH]c3ccccc23)C(=O)N[C@@H](CCCCN)C(=O)N[C@@H]([C@@H](C)O)C(=O)N1)C(=O)O [Compound 3, DOTA-di-D-Glu-TATE]",Kidney/Liver uptake ratio (24 h),[1],16.5
"C[C@@H](O)[C@H](NC(=O)[C@@H]1CSSC[C@H](NC(=O)[C@@H](Cc2ccccc2)NC(=O)[C@@H](CCCCN)NC(=O)[C@@H](CCCCN)NC(=O)CN2CCN(CC(=O)O)CCN(CC(=O)O)CCN(CC(=O)O)CC2)C(=O)N[C@@H](Cc2ccc(O)cc2)C(=O)N[C@H](Cc2c[nH]c3ccccc23)C(=O)N[C@@H](CCCCN)C(=O)N[C@@H]([C@@H](C)O)C(=O)N1)C(=O)O [Compound 4, DOTA-di-D-Lys-TATE]",Kidney/Liver uptake ratio (24 h),[1],89.6
"C[C@@H](O)[C@H](NC(=O)[C@@H]1CSSC[C@H](NC(=O)[C@@H](Cc2ccccc2)NC(=O)[C@@H](CCCCN)NC(=O)[C@@H](CCCCN)NC(=O)CN2CCN(CC(=O)O)CCN(CC(=O)O)CCN(CC(=O)O)CC2)C(=O)N[C@@H](Cc2ccc(O)cc2)C(=O)N[C@H](Cc2c[nH]c3ccccc23)C(=O)N[C@@H](CCCCN)C(=O)N[C@@H]([C@@H](C)O)C(=O)N1)C(=O)O [Compound 10, La-DOTA-D-Lys-D-Lys-TATE]",Log D7.4 of La^3+ chelate,[2],−3.28
same,LogD7.4,[2],−3.28
"C[C@@H](O)[C@H](NC(=O)[C@@H]1CSSC[C@H](NC(=O)[C@@H](Cc2ccccc2)NC(=O)[C@@H](CCC(=O)O)NC(=O)[C@@H](CCCCN)NC(=O)CN2CCN(CC(=O)O)CCN(CC(=O)O)CCN(CC(=O)O)CC2)C(=O)N[C@@H](Cc2ccc(O)cc2)C(=O)N[C@H](Cc2c[nH]c3ccccc23)C(=O)N[C@@H](CCCCN)C(=O)N[C@@H]([C@@H](C)O)C(=O)N1)C(=O)O [Compound 11, La-DOTA-D-Lys-D-Glu-TATE] ({DOTA}-[dK][dE][dF]CY[dW]KTCT-OH; disulfide 4-9)",Log D7.4 of La^3+ chelate,[2],−3.10
same,LogD7.4,[2],−3.10
"C[C@@H](NC(=O)[C@@H](Cc1ccccc1)NC(=O)CN1CCN2CCN3CCN(CC1)CC(=O)[O][139La]([O]C(=O)C2)[O]C(=O)C3)C(=O)N[C@H](Cc1ccccc1)C(=O)N[C@H]1CSSC[C@@H](C(=O)N[C@H](C(=O)O)[C@@H](C)O)NC(=O)[C@H]([C@@H](C)O)NC(=O)[C@H](CCCCN)NC(=O)[C@@H](Cc2c[nH]c3ccccc23)NC(=O)[C@H](Cc2ccc(O)cc2)NC1=O [Compound 14, 139La-DOTA-D-Phe-D-Ala-TATE]",binding affinity for the SSTR2 receptor,[3],high binding affinity (low nM Ki)
"CC(C)C[C@@H](NC(=O)[C@@H](Cc1ccccc1)NC(=O)CN1CCN2CCN3CCN(CC1)CC(=O)[O][139La]([O]C(=O)C2)[O]C(=O)C3)C(=O)N[C@H](Cc1ccccc1)C(=O)N[C@H]1CSSC[C@@H](C(=O)N[C@H](C(=O)O)[C@@H](C)O)NC(=O)[C@H]([C@@H](C)O)NC(=O)[C@H](CCCCN)NC(=O)[C@@H](Cc2c[nH]c3ccccc23)NC(=O)[C@H](Cc2ccc(O)cc2)NC1=O [Compound 15, 139La-DOTA-D-Phe-D-Leu-TATE]",binding affinity for the SSTR2 receptor,[3],high binding affinity (low nM Ki)
"C[C@@H](O)[C@H](NC(=O)[C@@H]1CSSC[C@H](NC(=O)[C@@H](Cc2ccccc2)NC(=O)CN2CCN(CC(=O)O)CCN(CC(=O)O)CCN(CC(=O)O)CC2)C(=O)N[C@@H](Cc2ccc(O)cc2)C(=O)N[C@H](Cc2c[nH]c3ccccc23)C(=O)N[C@@H](CCCCN)C(=O)N[C@@H]([C@@H](C)O)C(=O)N1)C(=O)O [^225Ac-DOTATATE, metal not drawn]",primary route of elimination,[4],renal route
same,appearance / indications of toxicity,[5],no indications of toxicity
same,remaining at 120 h,[6],96.7 ± 2.06%
same,% Intact TLC scanner,[6]; 24 h,100.44 ± 0.88%
same,% Intact TLC scanner,[6]; 72 h,99.27 ± 0.29%
same,% Intact TLC scanner,[6]; 168 h,93.19 ± 1.50%
same,% Intact TLC scanner,[6]; 240 h,90.29 ± 4.00%
DOTA-D-Lys-D-Glu-TATE [Compound 5],Kidney/Liver uptake ratio (24 h),[1],87.6
"Eu-DOTA-TATE [Compound 6, reference compound]",LogD7.4,[2],−2.80
